{"source": "patent US7041698B2", "about": "“Hepatitis C virus inhibitors” (Bristol-Myers Squibb Company, priority 2002, dated 2006)", "key": {"[1]": {"system": "T1, human pancreatic chymotrypsin", "T1 construct": "human pancreatic chymotrypsin", "assay": "Specificity assay, chymotrypsin", "type": "biochemical", "conditions": "2 hr pre-incubation at RT", "experimental": "The specificities of compounds of the present invention were determined against a variety of serine proteases: human sputum elastase (HS), porcine pancreatic elastase (PPE) and human pancreatic chymotrypsin and one cysteine protease: human liver cathepsin B. In all cases a 96-well plate format protocol using calorimetric p-nitroaniline (pNA) substrate specific for each enzyme was used as described previously (Patent WO 00/09543) with some modifications to the serine protease assays. All enzymes were purchased from Sigma while the substrates were from Bachem.\nEach assay included a 2 hr enzyme-inhibitor pre-incubation at RT followed by addition of substrate and hydrolysis to ˜30% conversion as measured on a Spectramax Pro microplate reader. Compound concentrations varied from 100 to 0.4 μM depending on their potency. […]\nThe percentage of inhibition was calculated using the formula: [1-((UVinh−UVblank)/(UVctl−UVblank))]×100 […]"}, "[2]": {"system": "HCV replicon in Huh7 cells", "assay": "HCV replicon cell-based assay", "set-up": "species or system HCV strain 1B", "conditions": "Hepatitis C virus", "outline": "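Huh7 cells carrying a genotype 1b subgenomic replicon (NS3-NS5B, neo) treated 4 days at 37° C with compound (0.5% DMSO final). NS3 protease activity read in lysates with 10 μM FRET peptide (340/490 nm, kinetic), giving EC50. Confirmed by Taqman qRT-PCR of HCV RNA and a Renilla luciferase replicon.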"}}, "note": "Read-outs that look alike come from different tables or passages of the source."}
{"smiles": "C=CC1C[C@]1(NC(=O)[C@@H]1C[C@@H](OC(=O)Nc2ccccc2-c2ccccc2)CN1C(=O)[C@@H](NC(=O)OC(C)(C)C)C(C)(C)C)C(=O)NS(=O)(=O)C1CC1", "note": "(stereo partly drawn) [Compound 8, BocNH-P3(t-BuGly)-P2(Hyp(O—CO(NH-biphen-2-yl)))-P1(1R,2S VinylAcca)—CONHSO2Cyclopropane]", "values": [{"measurement": "IC50", "setting": "[1]", "value": "> 100", "unit": "µM"}, {"measurement": "EC50", "setting": "[2]; Huh-7, 96 h, HCV replicon, 4 days, read-out: EC50 range", "value": "0.1 to 1", "unit": "µM"}, {"measurement": "EC50", "setting": "[2]; Huh-7, HCV replicon, read-out: EC50 value in the replicon assay", "value": 0.284, "unit": "µM"}]}
